Source: paper PMC8567104 (Frontiers in Pharmacology, 2021)
“And” between values parts separate entries of the source, which are not always exact repeats. Equal values may be shown once. Read-outs that look alike come from different tables or passages of the source.

Tests used:
[1] = biological target: T1, hNav1.5_I408W_L409C_A410W (WCW mutant) (Homo sapiens, UniProt Q14524, A410W/I408W/L409C); test: Open channel block, persistent current of inactivation-deficient WCW mutant; format: cell-based; settings: for Hill-coefficient: persistent current
T1 construct: expressed in transfected cells; host or cells: tsA201 (HEK293 derivative)
Protocol: (§1) Electrophysiological experiments were performed as previously described ([Ludolph et al., 2010]; [Föhr et al., 2021]). Briefly, tsA201 cells were used for experiments 24–48 h after transfection. Membrane currents were recorded in the whole-cell recording mode using an EPC-9 amplifier and Patchmaster software (v2x73; HEKA, Lambrecht, Germany ([Hamill et al., 1981])). Before recording, cells were rinsed twice with an extracellular standard solution containing (in mM): 140 NaCl, 5 KCl, 1.5 CaCl2, 1.0 MgCl2, 10 glucose and 12 HEPES (4-(2-hydroxyethyl)piperazine- 1-ethanesulfonic acid; pH 7.3). For establishing activation curves, the concentration of NaCl was reduced to 30 mM to achieve current amplitudes in the range of 1 nA. Lacking cations were replaced equimolar by N-Methyl-D-glucamine (NMDG). Patch pipettes were drawn from borosilicate glass with tip resistances of about 2 MΩ when filled with (in mM): 125 CsF, 10 NaCl, 10 EGTA (ethylene glycol-bis(2-aminoethylether)-N,N,N′,N′-tetraacetic acid), 10 HEPES; pH 7.2. To improve sealing, tips were briefly dipped into 2% dimethylsilane dissolved in dichloromethane.
(§2) Unless otherwise stated, the membrane potential was held at −140 mV from which channel activations were elicited by brief depolarizing pulses to −20 mV of 5 ms duration. In order to minimize voltage errors, the series resistance was compensated up to 80%. Cells with currents larger than 6 nA were excluded from evaluation. Specific protocols are illustrated in figure legends where appropriate.
(§3) Concentration-inhibition curves for estimating Kr (IC 50 at −140 mV; Figure 3), Ki (Figures 8, 13, 14), Ko (Figures 12, 17) or K app (Figure 9) were fitted to the Hill-equation.

[2] = biological target: T2, hNav1.5 (Homo sapiens, UniProt Q14524); test: Voltage-dependence of fast inactivation; format: cell-based; set-up: expressed in transfected cells; host or cells: tsA201 (HEK293 derivative)
Protocol: as §1, with “dichloromethane. […]” for “dichloromethane.”
FIGURE 5 Voltage-dependence of fast inactivation. […] Voltage-dependence of fast inactivation was determined by measuring sodium currents elicited by 5 ms depolarizations to −20 mV after conditioning pre-pulses for 500 ms to different potentials (range −140 to −45 mV).

[3] = biological target: T2, hNav1.5; test: Time-dependent development of block (inactivating pre-pulse to −20 mV of variable duration); format: cell-based; set-up: expressed in transfected cells; host or cells: tsA201 (HEK293 derivative); settings: for Amount of τ1 component / Amount of τ2 component / τ1 of block development / τ2 of block development: double exponential fit; for remaining current at the longest inactivation time: inactivation up to 30 s at −20 mV; for time constant of reduction of availability: single exponential, inactivation at −20 mV
Protocol: as §1, §2
Association (k on in µM^−1s^−1) and dissociation rates (k off in s^−1) were estimated from the slope and the y-intercept of a linear regression where the inverse of the fast time constants (1/τ) was plotted against the drug concentration [D] (Kuo et al., 1997). 1/τ=koff+kon∗[D] (9)
The corresponding dissociation constants were calculated according to: Kd=koff/kon (10)
Next, a set of experiments was performed to describe the time course of block development. The protocol is illustrated in Figure 7D. Briefly, after channel activation from a holding potential of −140 mV for control, ample time for full recovery at the holding potential was provided. Thereafter, the channels were inactivated for a variable duration (range: 25 ms–30 s) at a potential of −20 mV. Immediately before the test-pulse, channels were allowed to recover once more at the holding potential to eliminate or minimize the impact from fast inactivation. For evaluation, the current amplitudes obtained for test-pulses were related to their controls. […] For further evaluation, data were normalized with respect to control values (Figure 7B). […] The on-rate (k on ) was directly taken from the slope of the linear regression and the off-rate (k off ) was given by the y-intercept (Eq. 9, 10). For estimating the affinity for the inactivated state, the K i values were separately calculated for each cell according to the relation K i = k off /k on .
FIGURE 7 Time-dependent interaction. […] (B) Data from A, normalized with respect to control. […] Kon and koff values were taken from the slope and the y-intercept of the linear regression, respectively. […] (D) Experimental scheme. Starting from a holding potential of −140 mV, first a control pulse to […] was executed. Thereafter, ample time (2 s) was given to allow for full recovery before channels were inactivated for a variable duration at −20 mV. The test-pulse was carried out after a short recovery at −140 mV. For evaluation, test-pulse amplitudes were related to their controls.
FIGURE 15 Time-dependent interaction of imipridone derivatives.

[4] = biological target: T2, hNav1.5; test: Interaction with the inactivated state: steady-state parameters (20 s inactivation at −20 mV); format: cell-based; set-up: expressed in transfected cells; host or cells: tsA201 (HEK293 derivative); settings: for Hill-coefficient n: concentration-inhibition curve after 20 s inactivation at −20 mV
Protocol: as §1, §2, §3
I D and I C are the current amplitudes in the presence and absence of the drug, where [D] is the concentration of the drug.
To this end, a double pulse protocol was used as outlined by Figure 8B. […] To minimize drift effects during these long-lasting experiments, each run included its own control. Thus, drug effects as measured by the test-pulse were related to the timely executed control activation. […]

[5] = biological target: T2, hNav1.5
Protocol: as §1, §2

[6] = biological target: T2, hNav1.5; settings: 40 µM (highest concentration tested); holding potential −140 mV; 30 s preincubation
Protocol: as §1
Unless otherwise stated, the membrane potential was held at −140 mV from which channel activations were elicited by brief depolarizing pulses to −20 mV of 5 ms duration. In order to minimize voltage errors, the series resistance was compensated up to 80%. […]

[7] = biological target: T2, hNav1.5; test: cell-based
Protocol: as §1, §2

[8] = biological target: T2, hNav1.5; settings: 10 µM
Protocol: as §1, §2
Recovery time constants were estimated from double or triple exponential fits according to: I/Imax=1−a1∗e^(−t/τ1)−a2∗e^(−t/τ2)−a3∗e^(−t/τ3) (11)
Variable identifiers have the same meaning as before, with a 1 + a 2 + a 3 = 1.
If a drug interacts with the inactivated state (fast or slow), it is expected that also recovery from inactivation is affected. We analyzed this aspect by the use of a tri-pulse experiment (Figure 10B). After an initial control pulse, sufficient time was provided for full recovery. Next channels were inactivated for 500 ms at −20 mV. The test-pulse was initiated after channels had been allowed to recover at a potential of −140 mV for a variable time (range: 0.2 ms to 2.7 s). For evaluation, the current amplitudes of the test-pulses were related to their controls and plotted versus the recovery time (Figure 10A). To describe the time course of recovery, data points were fitted with double exponential functions (Eq. 11). […] In order to estimate recovery from slow inactivation, the experimental scheme was modified to a prolonged inactivation time (10 s) and an expansion of the recovery time up to 32.8 s (Figure 10D).
FIGURE 10 Recovery from inactivation. (A) Recovery from fast inactivation. The relative amount of available channels versus the recovery time at −140 mV is illustrated. Solid lines represent fits with two exponential functions according to Eq. 11. (B) Experimental scheme. After an initial control pulse, inactivation was performed at −20 mV for 500 ms. The test-pulse was applied after a varying time of recovery. For evaluation, current amplitudes of the test-pulses were related to their controls.

[9] = biological target: hNav1.5 F1760K mutant (Homo sapiens, UniProt Q14524, F1760K, form not given); settings: inactivated channels
Protocol: as §1, §3

[10] = biological target: hNav1.5 N406C mutant (Homo sapiens, UniProt Q14524, N406C); settings: inactivated channels
Protocol: as §1, §3

[11] = set-up: method as in Allen et al., 2016; settings: weekly oral dose of 625 mg; patients; ref Allen et al., 2016; cited from earlier work

O=C1C2=C(CCN(Cc3ccccc3)C2)N2CCN=C2N1Cc1ccc(C(F)(F)F)cc1 [ONC212]
Hill-coefficient [1]: 1.4 ± 0.2 | shift of midpoints of fast inactivation ([2]; 10 µM, 500 ms pre-pulses, corrected for drug independent shift): −4.7 ± 0.4 mV and −4.7 ± 0.42 mV | Amount of τ1 component ([3]; 2.5 µM): 8.8 ± 4.5% | Amount of τ2 component ([3]; 2.5 µM): 57.4± 6.6% | τ1 of block development ([3]; 2.5 µM): 0.2 ± 0.06 s | τ2 of block development ([3]; 2.5 µM): 4.6 ± 0.95 s | Amount of τ1 component ([3]; 10 µM): 45.2 ± 6.5% | Amount of τ2 component ([3]; 10 µM): 46.9 ± 7.2% | τ1 of block development ([3]; 10 µM): 0.1 ± 0.03 s | τ2 of block development ([3]; 10 µM): 2.2 ± 0.27 s | IC50 ([4]; after 20 s inactivation at −20 mV, short recovery at −140 mV, wild type, read-out: half-maximal inhibition (IC50), representing the affinity for the inactivated state (Ki)): 2500 ± 700 nM | Hill-coefficient n [4]: 1.5 ± 0.1

Cc1ccccc1CN1C(=O)C2=C(CCN(Cc3ccccc3)C2)N2CCN=C12 [TIC10]
current amplitude in the presence of TIC10 compared to control ([5]; 10 µM, holding potential −90 mV, depolarization to −20 mV): about half of its size | slope (k) of activation curve ([5]; in the presence of 10 µM, control 7.2 ± 0.6 mV): 7.9 ± 0.8 mV | potential of half-maximal activation (midpoint of activation curve) ([5]; in the presence of 10 µM, control −43.1 ± 2.9 mV): −44.8 ± 2.8 mV | remaining current (of control) [6]: 93.2 ± 4.3% | potential of half-maximal slow inactivation ([7]; 10 µM, 10 s pre-pulses, control −42.9 ± 5.0 mV): −92.7 ± 7.0 mV | slope of slow inactivation curve ([7]; 10 µM, control 21.5 ± 2.7 mV): 12.8 ± 0.9 mV | availability (remaining current amplitude) at pre-pulse potential 0 mV ([7]; 10 µM, control 45.6 ± 10.9%): 4.7 ± 2.8% | inhibition at 10 µM ([7]; read-out: inhibition normalized to control at 0 mV): 89.7 ± 6.5% | inhibition at 10 µM ([7]; read-out: inhibition normalized to control at −40 mV): 88.3 ± 5% | Amount of τ1 component ([8]; 10 s inactivation): 36.3 ± 16.0% | Amount of τ2 component ([8]; 10 s inactivation): 62.2 ± 15.7% | τ1 for recovery from slow-inactivation ([8]; 10 s inactivation): 128.1 ± 80.3 ms | τ2 for recovery from slow-inactivation ([8]; 10 s inactivation): 548.4 ± 287.4 ms | proportion of fast recovering channels ([8]; 500 ms inactivation at −20 mV, recovery at −140 mV, control 92.6 ± 4.0%): 75.6 ± 7.0% | recovery time constant τ1 ([8]; control 1.4 ± 0.6 ms): 2.3 ± 1.2 ms | recovery time constant τ2 ([8]; control 23.6 ± 12.0 ms): 267.6 ± 73.1 ms | Hill-coefficient [1]: 0.9 ± 0.1 | effect on transient current (resting state) ([1]; up to 40 µM): hardly affected | Hill-coefficient ([9]; F1760K mutant): 1.5 ± 0.1 | reduction of affinity of F1760K mutant compared to wild type [9]: more than 20 fold | Hill-coefficient [10]: 1.2 ± 0.1 | maximal plasma concentration [11]: 4.3 µM | slope of fast inactivation curve ([2]; in the presence of 10 µM, 5.3 ± 0.9 mV in the absence): 5.4 ± 0.9 mV | remaining current at the longest inactivation time ([3]; 2.5 µM, control 59.2 ± 7.7%): 46.0 ± 4.8% | time constant of reduction of availability ([3]; 2.5 µM, control 10.1 ± 2.0 s): 5.3 ± 1.9 s | remaining current at the longest inactivation time ([3]; 10 µM): 16.9 ± 6.4% | time constant of reduction of availability ([3]; 10 µM): 2.0 ± 0.8 s | Hill-coefficient n [4]: 1.2 ± 0.1
